Experimental data taken from US7022667B2, “O-derivatized nocathiacin derivatives” (Bristol-Myers Squibb Company, priority 2002, dated 2006).
≈ marks a conversion by molar mass, not a printed value.

What was measured:
Assay in all cases: MIC, broth micro dilution assay (NCCLS)
Type in all cases: cell-based
[1] = test system: Enterococcus faecalis A20688; settings: Mueller-Hinton medium, 35° C., 18 hours
How it was run: (§1)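 Broth microdilution in Mueller-Hinton medium, with a final inoculum of about 5×10^5 cfu/well. Plates incubated at 35 °C for 18 hours in ambient air. MIC = lowest drug concentration preventing visible growth.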

[2] = test system: Staphylococcus aureus A15090; settings: Mueller-Hinton medium, 35° C., 18 hours
How it was run: as §1

[3] = test system: Streptococcus pneumoniae A28272; settings: 50% Mueller-Hinton medium and 50% Todd Hewitt medium, 35° C., 18 hours

Row | Structure (SMILES) | MIC (μg/mL) Enterococcus faecalis A20688 [1] [µg/mL] | MIC (μg/mL) Staphylococcus aureus A15090 [2] [µg/mL] | MIC (μg/mL) Streptococcus pneumoniae A28272 [3] [µg/mL]
1 | C=C(NC(=O)c1csc(-c2nc3c(cc2OCOP(=O)([O-])OC(C)(C)C)-c2nc(cs2)C(=O)NC(C(C)O)C(=O)NC(=C(C)OC)c2nc(cs2)C(=O)NC2c4nc(cs4)C(=O)NC(COC(=O)c4c5c6c(cccc6n4OCOP(=O)([O-])OC(C)(C)C)COC(=O)C(OC4CC(C)(O)C(N(C)C)C(C)O4)C2OC5)c2nc-3cs2)n1)C(N)=O.[Na+].[Na+] (stereo not drawn) [Example 81] | >128 | 128 | 8
2 | COC(C)=C1NC(=O)C(C(C)O)NC(=O)c2csc(n2)-c2cc(OCC(=O)OC(C)(C)C)c(-c3nc(C(N)=O)cs3)nc2-c2csc(n2)C2COC(=O)c3c4c5c(cccc5n3OCC(=O)OC(C)(C)C)COC(=O)C(OC3CC(C)(O)C(N(C)C)C(C)O3)C(OC4)C(NC(=O)c3csc1n3)c1nc(cs1)C(=O)N2 (stereo not drawn) [Example 82] | 0.06 (≈ 0.0376 µM) | 0.03 (≈ 0.0188 µM) | 0.015 (≈ 0.00939 µM)
3 | COC(C)=C1NC(=O)C(C(C)O)NC(=O)c2csc(n2)-c2cc(OC)c(-c3nc(C(N)=O)cs3)nc2-c2csc(n2)C2COC(=O)c3c4c5c(cccc5n3OC)COC(=O)C(OC3CC(C)(O)C(N(C)C)C(C)O3)C(OC4)C(NC(=O)c3csc1n3)c1nc(cs1)C(=O)N2 (stereo not drawn) [Example 83] | 0.06 (≈ 0.043 µM) | 0.03 (≈ 0.0215 µM) | 0.03 (≈ 0.0215 µM)

More lines, now with the values ahead:

Row | MIC (μg/mL) Enterococcus faecalis A20688 [1] [µg/mL] | MIC (μg/mL) Staphylococcus aureus A15090 [2] [µg/mL] | MIC (μg/mL) Streptococcus pneumoniae A28272 [3] [µg/mL] | Structure (SMILES)
4 | 4.0 (≈ 2.32 µM) | 4.0 (≈ 2.32 µM) | 0.5 (≈ 0.29 µM) | C=C(NC(=O)c1csc(-c2nc3c(cc2OP(=O)(O)OCCCl)-c2nc(cs2)C(=O)NC(C(C)O)C(=O)NC(=C(C)OC)c2nc(cs2)C(=O)NC2c4nc(cs4)C(=O)NC(COC(=O)c4c5c6c(cccc6n4OP(=O)(O)OCCCl)COC(=O)C(OC4CC(C)(O)C(N(C)C)C(C)O4)C2OC5)c2nc-3cs2)n1)C(N)=O (stereo not drawn) [Example 86]
5 | 2.0 (≈ 1.12 µM) | 1.0 (≈ 0.561 µM) | 0.06 (≈ 0.0337 µM) | C=C(NC(=O)c1csc(-c2nc3c(cc2OS(=O)(=O)c2cn(C)cn2)-c2nc(cs2)C(=O)NC(C(C)O)C(=O)NC(=C(C)OC)c2nc(cs2)C(=O)NC2c4nc(cs4)C(=O)NC(COC(=O)c4c5c6c(cccc6n4OCCCNS(=O)(=O)c4cn(C)cn4)COC(=O)C(OC4CC(C)(O)C(N(C)C)C(C)O4)C2OC5)c2nc-3cs2)n1)C(N)=O (stereo not drawn) [Example 87]
